Patent US20060030586A1, “Method and health food for preventing and/or alleviating psychiatric disorder, and/or for effectuating sedation” (Education Center of Traditional Chinese Medicine Co., priority 2004, published 2006)

What was measured:
mice [1] = experiment: Thiopental sleep-enhancing test; type: in vivo; conditions: 15 minutes before thiopental 60 mg/kg i.p.
Description: (§1) In the following Examples, all extracts and drugs used were dissolved in physiological saline before use for i.p. administration and the dose was 0.1 ml of physiological saline per 10 g of mouse body weight in either case. All extracts and drugs were suspended in physiological saline containing 1% carboxymethylcellulose before use for oral administration and the dose was 0.1 ml of 1% carboxymethylcellulose-containing physiological saline suspension per 10 g of mouse body weight in either case. Male ICR mice (Japan SLC) having a body weight of 25 to 30 g were used in the tests below unless otherwise stated, and were fed in advance at a room temperature of 23±1° C. and a relative humidity of 55±5% in the environment of a 12-hour-light and 12-hour-dark cycle at 7 and 19 for 3 to 5 days. The mice were allowed to have water and feed freely.
Actions on thiopental sleep by various compounds were evaluated. Thiopental dissolved in physiological saline was administered intraperitoneally into mice at a dose of 60 mg/kg. 50 mg/kg of neferine hydrochloride (treatment group 2-1, n=9), 50 mg/kg of isoliensinine hydrochloride (treatment group 2-2, n=9), 100 mg/kg of lien tzehsin 2 extract hydrochloride (treatment group 2-3, n=9), only physiological saline (negativity control group, n=6), or 1 mg/kg of diazepam (positive control group, n=9) was administered intraperitoneally into the mice 15 minutes before the thiopental administration. The time when the righting reflex of the mice disappeared after thiopental administration was designated as sleep-induction time, while total sleep time was calculated from the induction time and the time when the righting reflex was restored.

mice [2] = experiment: Locomotor activity (ultromotivity) measurement, evaluation of sedative action; type: in vivo; conditions: for Significant difference test of ultromotivity: Tukey's method; for Significant difference test of ultromotivity / Ultromotivity (count) 60 minutes: 60 minutes
Description: as §1
Twenty five mice were grouped into five groups each having five mice, to which 5 mg/kg of N-methylcoclaurine hydrochloride (treatment group 1-1: i.p. administration), 50 mg/kg of neferine hydrochloride (treatment group 1-2: oral administration, and treatment group 1-3: i.p. administration), 50 mg/kg of liensinine hydrochloride (treatment group 1-4: oral administration), or physiological saline (negativity control group 1-1: i.p. administration) was administered. The ultromotivity of the mice was analyzed by using a locomotor activity monitoring system (NS-AS01, Neuroscience Inc.). The ultromotivity measurements were performed at an interval of 5 minutes for 60 minutes, and the ultromotivity was judged from the count at each measuring time.
Similar tests were conducted by i.p. administration of 25 mg/kg of N-norarmepavine (treatment group 1-5, n=6), 25 mg/kg of O,O-dimethylcoclaurine (treatment group 1-6, n=5), 10 mg and 25 mg/kg of armepavine (respectively, treatment group 1-7, n=6, and treatment group 1-8, n=6), 10 mg and 25 mg/kg of O-methylarmepavine (respectively, treatment group 1-9, n=6, and treatment group 1-10, n=6), and physiological saline (negativity control group 1-2, n=5). The ultromotivity measurements were performed at an interval of five minutes for 60 minutes, and the ultromotivity was subjected to a significant difference test (Tukey's method) by using the counts at respective measuring times.
(§2) Tests were performed by using mice administered intraperitoneally with 25 mg/kg of neferine hydrochloride (treatment group 7-1, n=6), 25 mg/kg of liensinine hydrochloride (treatment group 7-2, n=6), and physiological saline (negativity control group, n=6) as well as 5 mg/kg of diazepam (positive control group, n=6) and a rotarod equipment (Ugo Basile, Italy) and a locomotor activity monitoring system (NS-ASO1, Neuroscience Inc.). The rotarod test was performed by placing a mouse on a rod having a diameter of 4 cm rotating at a speed of 8 rpm 15 minutes after drug administration and observing whether the mouse can stay on the rod without falling for three minutes. The individuals that had fallen from the rotating rod in the period of 3 minutes were judged that they are with motor coordination disorder. […] In addition, the ultromotivity measurements were performed at an interval of five minutes for 60 minutes, and the ultromotivity results were subjected to a significant difference test (Tukey's method) by using the counts at respective measuring times.

mice [3] = experiment: Rotarod test (muscle relaxation, motor coordination); type: in vivo; conditions: n=6, 8 rpm, 3 minutes, 15 minutes after administration
Description: as §1, §2

mice [4] = experiment: Forced swimming test (Porsolt); type: in vivo; conditions: 100 mg/kg i.p., hydrochloride, 6-minute period
Description: as §1
Forced swimming tests were conducted according to the method of Porsolt et al. A mouse was placed in a cylindrical glass water tank of 10 cm in diameter and 25 cm in height (water temperature: 23° C.) filled with water to a depth of 10 cm and forced to swim therein. […] Each mouse was forced to swim 15 and 30 minutes after administration, and the immobile times during the 6-minute periods immediately after forced swimming were determined. […]

mice [5] = experiment: Glass ball-covering behavior test; type: in vivo; conditions: hydrochloride, 20 balls
Description: as §1
In evaluating glass ball-covering behavior, wood chip for breeding (beta chip) (Oriental Yeast Co., Ltd.) was placed in the transparent cage described in Example 3 to a depth of 5 cm, on which 20 glass balls (diameter: 1.5 cm) were placed evenly.
Twenty-one mice were grouped into three groups of seven mice, to which 25 mg/kg of neferine hydrochloride (treatment group 6-1), 50 mg/kg of the same (treatment group 6-2), and physiological saline (negativity control group) were administered intraperitoneally, respectively. A mouse was placed in the case 15 minutes after administration, and the number of the glass balls not covered with the wood chip was counted by visual observation at an interval of 10 minutes. The number of balls having ⅔ of the surface thereof being embedded in the wood chip was counted as the criteria for judgment.

mice [6] = experiment: Elevated plus-maze test; type: in vivo; conditions: 100 mg/kg i.p., hydrochloride, 30 minutes after administration, 5 minutes
Description: In the following Examples, all extracts and drugs used were dissolved in physiological saline before use for i.p. administration and the dose was 0.1 ml of physiological saline per 10 g of mouse body weight in either case. All extracts and drugs were suspended in physiological saline containing 1% carboxymethylcellulose before use for oral administration and the dose was 0.1 ml of 1% carboxymethylcellulose-containing physiological saline suspension per 10 g of mouse body weight in either case. […]
An elevated plus-maze (Neuroscience Inc.) consisting of 2 arms without high walls and 2 arms enclosed by high walls, which were crossing perpendicular to each other, was used for evaluation. A mouse was placed on the platform at the center in a position facing toward an arm enclosed by high walls, and the number of times the mouse entered into both arms and the period of the mouse staying in the arms without walls were determined during a period of 5 minutes. The results were evaluated by the ratios of the number of the mouse entering into the arms with walls with respect to the total number of entering into both arms (%) and by the period of the mouse staying in the arms without walls (%). […]

[7] = Seibu et al., no specific data; cited from earlier work
mice [8] = experiment: Suppression of methamphetamine-enhanced ultromotivity; type: in vivo; conditions: for Ultromotivity (count): hydrochloride, methamphetamine 1 mg/kg 15 minutes later, 60 minutes
Description: as §1
The effects of neferine on suppression of the enhancement of ultromotivity by methamphetamine were evaluated.
Fifteen mice were grouped into three groups of five mice, to which 50 mg/kg of neferine hydrochloride (treatment group 3-1), 100 mg/kg of the same (treatment group 3-2), and only physiological saline (negativity control group) were administered respectively intraperitoneally. Methamphetamine (1 mg/kg) was administered 15 minutes after the administration. After administration of methamphetamine, each of the mice was placed in a transparent polycarbonate cage (22.5 cm×33.8 cm×14.0 cm), where the ultromotivity of the mouse was analyzed for 60 minutes by using a locomotor activity analyzer (NS-AS01, Neuroscience Inc.).

mice [9] = conditions: Ito et al.; cited from earlier work

## COc1ccc(C[C@@H]2c3cc(Oc4cc(C[C@@H]5c6cc(O)c(OC)cc6CCN5C)ccc4O)c(OC)cc3CCN2C)cc1 [isoliensinine]
Mice [1]; 50 mg/kg i.p., hydrochloride
  Total sleep time: 120 min

## COc1cc2c(cc1OC)[C@@H](Cc1ccc(O)c(Oc3cc4c(cc3OC)CCN(C)[C@@H]4Cc3ccc(O)cc3)c1)N(C)CC2 [liensinine]
Mice [2]; 25 mg/kg i.p., hydrochloride
  Significant difference test of ultromotivity: In declining
Mice [2]; 50 mg/kg oral, hydrochloride
  Ultromotivity (count) 30 minutes: 600 count
  Ultromotivity (count) 60 minutes: 800 count
Mice [3]; 25 mg/kg i.p., hydrochloride
  Number of individuals fallen: 0

## CN1C(=O)CN=C(c2ccccc2)c2cc(Cl)ccc21 [diazepam, reference compound]
Mice [1]; 1 mg/kg i.p.
  Total sleep time: 130 min
Mice [2]; 5 mg/kg i.p.
  Significant difference test of ultromotivity: P < 0.005
Mice [3]; 5 mg/kg i.p.
  Number of individuals fallen: 5

## COc1ccc(C[C@@H]2c3cc(Oc4cc(C[C@@H]5c6cc(OC)c(OC)cc6CCN5C)ccc4O)c(OC)cc3CCN2C)cc1 [neferine]
Mice [4]; 15 minutes after administration
  Immobile time (sec) After 15 minutes: 165 s
Mice [4]; 30 minutes after administration
  Immobile time (sec) After 30 minutes: 170 s
Mice [5]; 25 mg/kg i.p.
  Number of glass balls not covered with wood chip After 10 minutes: 4
  Number of glass balls not covered with wood chip After 20 minutes: 7
  Number of glass balls not covered with wood chip After 30 minutes: 10
Mice [5]; 50 mg/kg i.p.
  Number of glass balls not covered with wood chip After 10 minutes: 3
  Number of glass balls not covered with wood chip After 20 minutes: 6
  Number of glass balls not covered with wood chip After 30 minutes: 9
Mice [1]; 50 mg/kg i.p., hydrochloride
  Total sleep time: 100 min
Mice [6]; arms without walls
  Staying period (%): 33%
Mice [6]; ratio to total entries
  Invasion times (%): 70%
Mice [2]; 25 mg/kg i.p., hydrochloride
  Significant difference test of ultromotivity: P < 0.01
Mice [2]; 50 mg/kg i.p., hydrochloride
  Ultromotivity (count) 30 minutes: 500 count
  Ultromotivity (count) 60 minutes: 760 count
Mice [2]; 50 mg/kg oral, hydrochloride
  Ultromotivity (count) 30 minutes: 500 count
  Ultromotivity (count) 60 minutes: 750 count
[7]
  Antihypertensive action (in words): exhibited an antihypertensive action
Mice [3]; 25 mg/kg i.p., hydrochloride
  Number of individuals fallen: 0
Mice [8]; 50 mg/kg i.p.
  Ultromotivity (count): 2600 count
Mice [8]; 100 mg/kg i.p.
  Ultromotivity (count): 1800 count
Mice [8]; 50 and 100 mg/kg i.p.
  Action on ultromotivity enhancement by methamphetamine (in words): obvious action suppressing the ultromotivity enhancement by methamphetamine
Mice [9]
  Locomotor activity-inhibiting action (in words): exhibited a locomotor activity-inhibiting action

## COc1cc2c(cc1O)[C@@H](Cc1ccc(O)cc1)N(C)CC2 [N-methylcoclaurine]
Mice [2]; 5 mg/kg i.p. versus 50 mg/kg
  Sedative activity compared with neferine and liensinine (in words): extremely higher activity
Mice [2]; 5 mg/kg i.p., hydrochloride
  Ultromotivity (count) 30 minutes: 250 count
  Ultromotivity (count) 60 minutes: 250 count
